Assay results published in US8299083B2, “PDE5 inhibitor compositions and methods for treating cardiac indications” (The Johns Hopkins University, priority 2004, dated 2012).
Where two headings read alike, the source gives them in different places.

Assays:
[1] = tested on: neonatal rat cardiac myocytes; experiment: Phenylephrine-induced hypertrophy of neonatal rat cardiomyocytes (sarcomere organization, 3H-leucine incorporation); assay type: cell-based; details: phenylephrine 1 μM, sildenafil 100 nM or 1 μM
[2] = tested on: calcineurin; experiment: Calcineurin expression in TAC hearts (Western blot); assay type: in vivo, mouse; details: 1 and 9 weeks of TAC
Experimental: Protein was prepared from snap-frozen heart tissue using extraction buffer as described previously^90. Antibodies included calcineurin (1:2000 dilution, BD Transduction Laboratories (San Diego, Calif.), GSK3β, Ser9-phospho-GSK313, Akt, Ser473-phospho-Akt, ERK, Thr202/Thr204-phospho-ERK (1:1000 dilution, Cell Signaling Technology, Beverly, Mass.). Primary antibody binding was visualized by horse radish peroxidase-conjugated secondary antibodies and enhanced chemiluminescence (Pierce, Rockford, Ill.).

[3] = tested on: STAT3; experiment: IL-6 induced STAT3 activation in neonatal rat myocytes; assay type: cell-based; details: sildenafil 1 μM
Experimental: Myocardial tissue extract was electrophoresed in SDS-New Page gel, and probed for both tyrosine phosphorylated (Tyr705) and total Stat3. In additional studies, rat neonatal myocytes were cultured, then exposed to interleukin 6 (IL-6, Cell Signaling, 100 ng/ml) for one hour. […] In other studies, cells were pre-transfected (Lipofectamine™, Invitrogen) with mixed oligonucleotide silencing RNAs for STAT3 (siRNA, SmarTTpool Stat3). Protein extracts were obtained from myocyte extracts after the 1 hour incubation period, and probed for phosphorylated and total protein levels of Stat1 (Tyr701) and Stat3 (Tyr705) (Cell Signaling Inc.). siRNA was transfected into neonatal myocytes.

[4] = Plasma sildenafil levels in healthy volunteers; assay type: in vivo; details: human, po, 100 mg, 100 mg oral
Description: Forty healthy volunteers were recruited from the general population in response to advertisements posted in the surrounding community. Subjects were screened by medical history, physical examination, and transthoracic echocardiogram. Individuals with heart disease, atherosclerosis, hypertension, diabetes mellitus, pulmonary hypertension, renal or hepatic disease, smoking, pregnancy, or under treatment with nitrates, adrenergic-blocking drugs, or medicines known to interfere with sildenafil pharmacokinetics were excluded. […] All subjects were instructed to fast for >6 hours prior to study. […] Intravenous dobutamine (5 μg/kg/min) was then administered for 5 minutes to achieve a stable response, and measurements repeated (D1). Dobutamine was discontinued, and 15 minutes provided to return to the baseline state. […] Data were again recorded for a second baseline (B2), and during a second dobutamine infusion (D2) using the identical protocol as for the first test. Plasma sildenafil and its metabolite […] measured in each subject by liquid chromatography and mass spectrometry (SFBC Analytical Labs, North Wales, Pa.).

[5] = tested on: MMP-2 and MMP-9; experiment: Cardiac gelatinase zymography; assay type: in vivo, mouse; details: 3W TAC, co-treatment
Experimental: In Vitro gelatin lysis by MMP-2 and MMP-9 was assessed by zymography. Briefly, modified Laemmli buffer without mercaptoethanol was added to lysed tissue samples and loaded on 10% gelatin (Invitrogen Corp., San Diego, Calif.). After electrophoresis, gels were washed twice with renaturing buffer at room temperature followed by developing buffer (Invitrogen Corp., San Diego, Calif.), then stained with a commercially available Coomassie stain to visualize lytic bands (SIMPLYBLUe, Invitrogen Corp., San Diego, Calif.).

[6] = tested on: AktTG and NTG mice; experiment: Transgenic mice with cardiac-targeted Akt overexpression (AktTG) and NTG controls: pressure-volume analysis, echo, heart weight; assay type: in vivo, mouse; details: for EDP / EDV / EF / ESP / ESV / Eesn / HR / PMXI / Tau / dP/dtmax/IP / dPdtmax / dPdtmin: sildenafil 100 mg/kg/day
Experimental: In vehicle-treated animals (age 4-5 months), AktTG hearts were larger and had reduced heart function (FIG. 10E and Table 3). […]
Transthoracic two-dimensional guided M-mode echocardiography was performed in non-anesthetized mice. Measurements were done using an echocardiography system, the SEQUOIA C256 (Siemens, Munich, Del.) with the 15 MHz linear-array transducer. Intact heart hemodynamic analysis was performed as described^90. These studies employed a four-electrode pressure-volume catheter (model SPR-839, Millar Instruments) placed through the left ventricular apex in the open chest anesthetized animal and positioned along the longitudinal axis to record chamber volume by impedance and pressure by micromanometry.
All hemodynamic data were recorded using custom developed software, digitizing signals at 2 KHz. End-diastolic and end-systolic volumes were the average of volumes measured during isovolumic contraction and relaxation, respectively. ESP was the pressure at maximal chamber elastance (P/V ratio)^1. EDP was the diastolic pressure at the lower right hand corner of the pressure-volume loop. Cardiac output was determined from a perivascular flow probe (Transonics, Ithica, N.Y.) placed around the thoracic aorta. Ea was equal to the ratio of end-systolic pressure divided by stroke volume. The volume catheter signal was calibrated for both gain and offset. Gain was determined by setting the catheter-derived cardiac output (equal to pressure-volume loop width times heart rate) to that obtained from the calibrated flow probe value. Offset was determined using the hypertonic saline method Ventricular power was equal to the instantaneous product of pressure times flow, and the peak power was divided by EDV to obtain the power index PMXI^79. […] The slope of this relation Ees was normalized by heart mass and expressed per gm heart mass. Msw was derived from the linear relation between stroke work and EDV from the same set of variably loaded cardiac cycles used to derive Eesn, and is another load-independent assessment of systolic contractile function^4. Tau was obtained from the model: P=Po+ae^−t/□ . . . fitting data during isovolumic relaxation. dP/dt was derived from a digital filter (5-point weighted slope). PFR/EDV was derived from the maximal first derivative of the volume signal during early diastole, divided by EDV.

concentration at 75 min ([4]; subjects excluded from analysis, read-out: plasma concentration, mean of four subjects with very low levels): 3.6 nM
concentration at 75 min ([4]; subjects excluded from analysis, read-out: plasma concentrations, each of four subjects with very low levels): < 6 nM
concentration at 75 min ([4]; Free plasma sildenafil concentration, 75 minutes after dose): 44 ± 29 nM
gelatinase activity (gel lysis) [5]: largely inhibited
SMILES: CCCc1nn(C)c2c(=O)[nH]c(-c3cc(S(=O)(=O)N4CCN(C)CC4)ccc3OCC)nc12 [sildenafil]
PE-induced cellular hypertrophy (sarcomere organization, protein synthesis) [1]: suppressed
calcineurin protein expression [2]: significantly reduced
IL-6 induced STAT activation [3]: prevented the STAT activation
progressive hypertrophy in AktTG mice (serial echo, heart weight/tibia length) ([6]; AktTG, 6-week period): did not blunt progressive hypertrophy
EDP ([6]; AktTG): 8.9 ± 1.1
EDV ([6]; AktTG): 57.6 ± 5.4
EF ([6]; AktTG): 31.8 ± 2.1
ESP ([6]; AktTG): 90.1 ± 0.9
ESV ([6]; AktTG): 39.6 ± 4.5
Eesn ([6]; AktTG): 21.5 ± 2.9
HR ([6]; AktTG): 569.5 ± 47.4
PMXI ([6]; AktTG): 17.8 ± 1.9
Tau ([6]; AktTG): 10.0 ± 0.6
dP/dtmax/IP ([6]; AktTG): 128.5 ± 2.9
dPdtmax ([6]; AktTG): 6993 ± 156
dPdtmin ([6]; AktTG): −6241 ± 289
EDP ([6]; NTG): 4.9 ± 1.2
EDV ([6]; NTG): 44.5 ± 4.9
EF ([6]; NTG): 56.7 ± 3.5
ESP ([6]; NTG): 96.7 ± 4.7
ESV ([6]; NTG): 19.4 ± 3.0
Eesn ([6]; NTG): 39.9 ± 1.5
HR ([6]; NTG): 511.6 ± 31.4
PMXI ([6]; NTG): 25.9 ± 2.2
Tau ([6]; NTG): 7.4 ± 0.6
dP/dtmax/IP ([6]; NTG): 176.4 ± 14.8
dPdtmax ([6]; NTG): 10133 ± 791
dPdtmin ([6]; NTG): −9267 ± 417
